# Measurements from patent publication US12491230B2, “Peptides for use in promoting transport of glucose” (NURITAS LIMITED, priority 2015, dated 2025).
# No end group written: not given here.
# What was measured:
# [1] = system: L6-GLUT4myc cells; experiment: Cell viability / cell death seen in the GLUT4 translocation experiment; assay type: cell-based, rat; details: synthetic peptide 200 μM, 3 hours
# Procedure: (§1) L6-GLUT4myc cells were serum-starved for three hours prior to incubation with 100 nM of insulin for 30 mins, or 200, 20, 2.0 and 0.2 μM of SP, and 2, 1, 0.5 and 0.25 mg/ml of peptide composition for 3 hours respectively. A 3 hour incubation period was selected based on previous findings identifying that incubation with branch chain amino acid containing di-peptides for 3 hours increases glucose uptake in L6 myotubes 1. Treatments were staggered in order to determine GLUT4myc translocation at the same time point.
# [2] = system: GLUT4; experiment: Measurement of GLUT4myc translocation in L6 myotubes (antibody-coupled colorimetric assay); assay type: cell-based, rat; details: L6-GLUT4myc cells
# Excerpt: We determined the effect of six synthetic peptides (SP1-6) and four peptide compositions on in vitro GLUT4 translocation using the L6 rat skeletal muscle cell line. A clone of the L6 cell line containing overexpression of GLUT4 tagged with a c-myc epitope (courtesy of Prof. Amira Klip, Hospital for Sick Children, Toronto) was used to investigate the efficacy of each synthetic peptide and peptide composition for effects on GLUT4 translocation in a dose-response design.
# L6-GLUT4myc cells were grown in 10% FBS and 2 μg/ml blasticidin. Cells were grown for 48-72 hours before being seeded in 24-well plates at 15,000 cells per well in 2% FBS and allowed to differentiate for 6 to 8 days prior to experimentation.
# as §1
# The quantity of myc-tagged GLUT4 at the cell surface was measured by antibody-coupled colorimetric assay. Briefly, after incubation with either insulin for 30 mins or synthetic peptide or peptide composition for 3 hours respectively, L6-GLUT4myc cells were fixed via incubation with 3% paraformaldehyde (PFA). A 0.1 M glycine solution was then added to quench PFA and cells were blocked with 5% goat serum. The myotube monolayer was exposed to anti-myc antibody and then incubated with peroxidase conjugated donkey anti-mouse IgG. 1 mL of o-phenylenediamine dihydrochloride (OPD) reagent was added to each well and this reaction was stopped by adding 250 μl/well of 3 M HCL. To determine GLUT4 translocation to cell surface, a measured aliquot of each condition was determined spectrophotometrically on a plate reader using absorbance at 492 nm. […]
substance,measurement,setting,value
"DTFYNAAWDPSNR [SP1, DTFYNAAWDPSNR]",cell viability,[1],poor cell viability
VLDLAIPVNRPGQL [SP2],stimulatory effect on skeletal muscle GLUT4 translocation (conclusion of the experiment),[2]; dose-response design,displayed a trend for stimulatory effect
same,GLUT4 translocation,"[2]; synthetic peptide 0.2-2 μM, 3 hours",trend for SP2 to increase GLUT4 translocation
insulin [reference compound],average increase in cell surface GLUT4 translocation compared to untreated control,"[2]; 100 nM insulin, 30 mins",1.72 fold
